Counter-ions that a name gives are not always drawn. Like-named read-outs stand apart in the source and are kept apart here.
Legend:
[1] = test system: Bacillus coagulans MTCC 25235; assay: MIC of antibiotics by broth microdilution (CLSI), antibiotic resistance pattern; type: cell-based
Protocol: (§1) MIC was determined as per the guidelines of Clinical and Laboratory Standards Institute (CLSI 2012). Bacillus coagulans MTCC 25235 suspensions were prepared by suspending 18 h grown bacterial culture in sterile normal saline (0.89% NaCl wt/vol; Himedia, Mumbai India). The turbidity of the bacterial suspension was adjusted to 0.5 McFarland standards (equivalent to 1.5×10^8 colony forming units (CFU)/ml). The antibiotics stock solutions were prepared as per CLSI guidelines and 2-fold serial dilutions were prepared in broth medium (glucose yeast extract acetate broth [GYEA, HiMedia, Mumbai India for Bacillus coagulans MTCC 25235 and Mueller Hinton Broth [MHB, Difco Laboratories, Detroit, Mich USA] for S. aureus) in 100 μl volume in 96-well U bottom microtiter plates (BD Labware, NJ USA). The above-mentioned bacterial suspension was further diluted in the MHB and 100 μl volume of this diluted inoculum was added to each well of the plate resulting in the final inoculum of 5×10^5 CFU/ml in the well and the final concentration of antibiotics ranged from 0.0078 to 4 μg/ml. S. aureus ATCC 6538 was used as reference culture in this study. The plates were incubated at 37° C. for 24 h and were visually read for the absence or presence of turbidity. The minimum concentration of the compound concentration showing no turbidity was recorded as MIC.

S. aureus ATCC 6538 = assay: MIC of antibiotics by broth microdilution (CLSI), reference culture; type: cell-based
Protocol: as §1

[2] = Heyndrickxia coagulans, MTCC25235, against Bacillus coagulans MTCC 25235, GYEA broth, 37° C., 24 h, read-out: MIC
[3] = Staphylococcus aureus, ATCC6538, against S. aureus ATCC 6538, MHB, 37° C., 24 h, read-out: MIC
[4] = Heyndrickxia coagulans, MTCC25235, 24 h
[5] = Staphylococcus aureus, ATCC6538, 24 h
[6] = against Bacillus coagulans MTCC 25235, GYEA broth, 37° C., 24 h
[7] = against S. aureus ATCC 6538, MHB, 37° C., 24 h

For `CC1(C)S[C@@H]2[C@H](NC(=O)[C@H](N)c3ccccc3)C(=O)N2[C@H]1C(=O)O` [Ampicillin sodium salt], the MIC [1, 2] was 0.125 µg/mL and the MIC (S. aureus ATCC 6538; [3]) was 0.031 µg/mL.
`O=C(N[C@H](CO)[C@H](O)c1ccc([N+](=O)[O-])cc1)C(Cl)Cl` [Chloramphenicol] gave an MIC [1, 2] of 0.031 µg/mL and an MIC (S. aureus ATCC 6538; [3]) of 2 µg/mL.
Work on `CCC[C@@H]1C[C@@H](C(=O)N[C@@H]([C@H]2O[C@H](SC)[C@H](O)[C@@H](O)[C@H]2O)[C@H](C)Cl)N(C)C1` [Clindamycin hydrochloride] yielded an MIC [1, 2] of 0.25 µg/mL and an MIC (S. aureus ATCC 6538; [3]) of 0.062 µg/mL.
Work on `CC[C@H]1OC(=O)[C@H](C)[C@@H](O[C@H]2C[C@@](C)(OC)[C@@H](O)[C@H](C)O2)[C@H](C)[C@@H](O[C@@H]2O[C@H](C)C[C@H](N(C)C)[C@H]2O)[C@](C)(O)C[C@@H](C)C(=O)[C@H](C)[C@@H](O)[C@]1(C)O` [Erythromycin] yielded an MIC [1, 4] of 0.125 µg/mL and an MIC (S. aureus ATCC 6538; [5]) of 0.125 µg/mL.
With `[H]/N=C(/N)N[C@H]1[C@H](O)[C@@H](O)[C@H](O[C@@H]2O[C@@H](C)[C@](O)(C=O)[C@H]2O[C@@H]2O[C@@H](CO)[C@H](O)[C@@H](O)[C@@H]2NC)[C@@H](N/C(N)=N\[H])[C@@H]1O` [Streptomycin sulphate] the MIC [1, 2] was 0.062 µg/mL and the MIC (S. aureus ATCC 6538; [3]) was 4 µg/mL.
`CN(C)[C@@H]1C(O)=C(C(N)=O)C(=O)[C@@]2(O)C(O)=C3C(=O)c4c(O)cccc4[C@@](C)(O)[C@H]3C[C@@H]12` [Tetracycline hydrochloride] was tested, and the MIC [1, 2] was 0.03 µg/mL and the MIC (S. aureus ATCC 6538; [3]) was 0.062 µg/mL.
With `CN[C@H](CC(C)C)C(=O)N[C@H]1C(=O)N[C@@H](CC(N)=O)C(=O)N[C@H]2C(=O)N[C@H]3C(=O)N[C@H](C(=O)N[C@H](C(=O)O)c4cc(O)cc(O)c4-c4cc3ccc4O)[C@H](O)c3ccc(c(Cl)c3)Oc3cc2cc(c3O[C@@H]2O[C@H](CO)[C@@H](O)[C@H](O)[C@H]2O[C@H]2C[C@](C)(N)[C@H](O)[C@H](C)O2)Oc2ccc(cc2Cl)[C@H]1O` [Vancomycin hydrochloride] the MIC [1, 4] was 0.25 µg/mL and the MIC (S. aureus ATCC 6538; [5]) was 0.5 µg/mL.
Compound Gentamicin sulphate has an MIC [1, 6] of 0.06 µg/mL and an MIC (S. aureus ATCC 6538; [7]) of 0.25 µg/mL.
With Kanamycin sulphate the MIC [1, 6] was 0.062 µg/mL and the MIC (S. aureus ATCC 6538; [7]) was 7.0 µg/mL.
